According to ChEMBL document CHEMBL5042533, “Structural Optimization and Structure-Activity Relationship Studies of 6,6-Dimethyl-4-(phenylamino)-6H-pyrimido[5,4-b][1,4]oxazin-7(8H)-one Derivatives as A New Class of Potent Inhibitors of Pan-Trk and Their Drug-Resistant Mutants” (J Med Chem, 2022):

Columns and labels:
[1] = target: BDNF/NT-3 growth factors receptor (Homo sapiens, UniProt Q16620); test: Inhibition of wild type TrkB (unknown origin) using poly(Glu: Tyr) as substrate preincubated for 15 mins followed by substrate addition and further incubated for 30 mins in presence of [gamma-33P]ATP by scintillation counting method
Sequence of BDNF/NT-3 growth factors receptor (Q16620 whole entry): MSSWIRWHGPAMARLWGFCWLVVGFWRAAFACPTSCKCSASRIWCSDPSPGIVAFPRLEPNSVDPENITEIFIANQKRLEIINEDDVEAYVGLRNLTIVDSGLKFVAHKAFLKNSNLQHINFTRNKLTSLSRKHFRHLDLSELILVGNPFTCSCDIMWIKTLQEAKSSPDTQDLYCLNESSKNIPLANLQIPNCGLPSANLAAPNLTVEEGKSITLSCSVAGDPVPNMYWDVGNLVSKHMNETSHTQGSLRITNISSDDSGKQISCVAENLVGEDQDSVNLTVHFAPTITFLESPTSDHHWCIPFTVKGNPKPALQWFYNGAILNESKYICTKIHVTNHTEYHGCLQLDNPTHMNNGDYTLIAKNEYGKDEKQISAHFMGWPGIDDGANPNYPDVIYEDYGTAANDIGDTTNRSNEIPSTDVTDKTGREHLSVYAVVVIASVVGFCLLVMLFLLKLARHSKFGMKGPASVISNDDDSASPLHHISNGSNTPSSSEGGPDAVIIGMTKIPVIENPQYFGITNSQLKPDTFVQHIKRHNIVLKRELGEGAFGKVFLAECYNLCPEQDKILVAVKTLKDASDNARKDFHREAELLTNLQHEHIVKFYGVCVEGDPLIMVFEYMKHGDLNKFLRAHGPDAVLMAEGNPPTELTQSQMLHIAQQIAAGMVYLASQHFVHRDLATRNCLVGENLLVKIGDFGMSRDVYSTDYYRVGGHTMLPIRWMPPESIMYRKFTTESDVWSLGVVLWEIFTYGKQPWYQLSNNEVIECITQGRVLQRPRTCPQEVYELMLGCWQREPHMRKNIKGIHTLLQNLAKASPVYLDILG

[2] = target: High affinity nerve growth factor receptor (Homo sapiens, UniProt P04629); test: Inhibition of wild type TrkA (unknown origin) using poly(Glu: Tyr) as substrate preincubated for 15 mins followed by substrate addition and further incubated for 30 mins in presence of [gamma-33P]ATP by scintillation counting method
Sequence of High affinity nerve growth factor receptor (P04629 whole entry): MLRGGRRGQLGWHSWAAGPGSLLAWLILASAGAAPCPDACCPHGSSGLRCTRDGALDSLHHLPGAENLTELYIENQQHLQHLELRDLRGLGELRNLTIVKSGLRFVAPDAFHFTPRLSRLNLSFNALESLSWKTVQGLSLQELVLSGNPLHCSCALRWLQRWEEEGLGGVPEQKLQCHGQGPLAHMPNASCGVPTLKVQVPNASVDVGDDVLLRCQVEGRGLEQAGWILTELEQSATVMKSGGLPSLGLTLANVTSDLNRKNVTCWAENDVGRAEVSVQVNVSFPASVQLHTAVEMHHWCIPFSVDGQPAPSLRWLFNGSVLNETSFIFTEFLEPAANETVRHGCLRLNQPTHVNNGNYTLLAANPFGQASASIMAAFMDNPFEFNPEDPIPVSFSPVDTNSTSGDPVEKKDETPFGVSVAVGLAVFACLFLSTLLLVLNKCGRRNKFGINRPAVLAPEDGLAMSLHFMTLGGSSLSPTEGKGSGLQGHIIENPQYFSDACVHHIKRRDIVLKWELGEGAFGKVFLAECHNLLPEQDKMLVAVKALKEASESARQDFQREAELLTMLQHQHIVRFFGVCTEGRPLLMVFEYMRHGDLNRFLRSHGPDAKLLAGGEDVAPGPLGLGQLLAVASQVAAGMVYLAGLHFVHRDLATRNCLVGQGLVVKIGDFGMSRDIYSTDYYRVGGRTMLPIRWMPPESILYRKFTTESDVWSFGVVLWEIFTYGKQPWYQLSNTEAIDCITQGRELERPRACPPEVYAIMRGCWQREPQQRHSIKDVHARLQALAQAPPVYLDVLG

[3] = tested on: BaF3; test: cells; settings: Mus musculus
Description: Cytotoxicity against mouse BaF3 cells harboring TEL fused TrkC G613R mutant assessed as inhibition of cell growth by MTT assay

[4] = tested on: BaF3; test: cells; settings: Mus musculus, BaF3, 72 h
Description: Cytotoxicity against mouse BaF3 cells expressing TEL fused TrkC assessed as inhibition of cell growth incubated for 3 days by CCK-8 assay

[5] = tested on: BaF3; test: cells; settings: Mus musculus, BaF3, 72 h; remark: listed apart in the source
[6] = tested on: BaF3; test: cells; settings: Mus musculus, BaF3, 72 h; remark: listed apart in the source
[7] = in vitro; settings: mouse, BaF3 cells
Description: Cytotoxicity against mouse BaF3 assessed as inhibition of cell growth incubated for 3 days by CCK-8 assay

[8] = tested on: BaF3; test: cells; settings: Mus musculus, BaF3, 72 h; remark: listed apart in the source
Description: Cytotoxicity against mouse BaF3 cells expressing TEL fused TrkC G623R assessed as inhibition of cell growth incubated for 3 days by CCK-8 assay

[9] = tested on: BaF3; test: cells; settings: Mus musculus, BaF3, 72 h; remark: listed apart in the source
Description: Cytotoxicity against mouse BaF3 cells expressing LMNA fused TrkA G667S mutant assessed as inhibition of cell growth incubated for 3 days by CCK-8 assay

[10] = cells; settings: Homo sapiens, KM12-Luc, 72 h
Description: Cytotoxicity against human KM12-Luc cells expressing TPM3 fused TrkA assessed as inhibition of cell growth incubated for 3 days by CCK-8 assay

[11] = tested on: BaF3; test: Cytotoxicity against mouse BaF3 cells expressing LMNA fused TrkA F589L mutant assessed as inhibition of cell growth incubated for 3 days by CCK-8 assay; type: functional, cell-based; settings: BaF3, 72 h
[12] = tested on: BaF3; test: cells; settings: Mus musculus, BaF3, 72 h; remark: listed apart in the source
Description: Cytotoxicity against mouse BaF3 cells expressing CD74 fused TrkA assessed as inhibition of cell growth incubated for 3 days by CCK-8 assay

[13] = tested on: BaF3; test: cells; settings: Mus musculus, BaF3, 72 h; remark: listed apart in the source
Description: Cytotoxicity against mouse BaF3 cells expressing TEL fused TrkA assessed as inhibition of cell growth incubated for 3 days by CCK-8 assay

[14] = tested on: BaF3; test: cells; settings: Mus musculus, BaF3, 72 h; remark: listed apart in the source
Description: Cytotoxicity against mouse BaF3 cells expressing TEL fused TrkC G696C assessed as inhibition of cell growth incubated for 3 days by CCK-8 assay

| SMILES | IC50 [1] [nM] | IC50 [2] [nM] | IC50 [3] [nM] | also measured |
| --- | --- | --- | --- | --- |
| Cc1cc(NC(=O)Nc2cc(C(C)(C)C)nn2-c2c(F)c(F)c(F)c(F)c2F)ccc1Nc1ncnc2c1OC(C)(C)C(=O)N2 | 42 | 52 | 740 |  |
| CC1(C)Oc2c(ncnc2Nc2ccc(NC(=O)Nc3cc(C(F)(F)F)cc(C(F)(F)F)c3)cc2)NC1=O | 202 | 100 | 5080 |  |
| CC1(C)Oc2c(ncnc2Nc2ccc(NC(=O)Nc3cccc(F)c3)cc2)NC1=O | > 10000 | > 10000 |  |  |
| Cc1cc(NC(=O)Nc2cc(C(C)(C)C)nn2-c2ccc(C(F)(F)F)cc2)ccc1Nc1ncnc2c1OC(C)(C)C(=O)N2 |  |  | 86 | IC50 [5]: 2 nM; IC50 [14]: 3 nM; IC50 at 3 days [7]: > 10000 nM; IC50 [8]: 86 nM; IC50 [9]: 10 nM; IC50 [10]: 13 nM; IC50 [11]: 13 nM; IC50 [12]: 2 nM; IC50 [13]: 2 nM |
| CC1(C)Oc2c(ncnc2Nc2ccc(NC(=O)Nc3cc(C(C)(C)C)nn3C3CCCCC3)cc2)NC1=O | 228 | 344 | 1560 |  |
| CSc1cc(Nc2ncnc3c2OC(C)(C)C(=O)N3)ccc1NC(=O)Nc1cc(C(C)(C)C)nn1-c1ccccc1 | 106 | 89 | 230 |  |
| Cc1cc(NC(=O)Nc2cc(C(C)(C)C)nn2-c2cccc(F)c2)ccc1Nc1ncnc2c1OC(C)(C)C(=O)N2 | 14 | 13 | 1140 |  |
| CC1(C)Oc2c(ncnc2Nc2ccc(NC(=O)Nc3ccc(F)c(F)c3)cc2)NC1=O | > 10000 | > 10000 |  |  |
| O=C(Nc1cnn2ccc(N3CCC[C@@H]3c3cc(F)ccc3F)nc12)N1CC[C@H](O)C1 [LAROTRECTINIB] |  |  |  | IC50 [4]: 59 nM; IC50 [5]: 1260 nM; IC50 [6]: 4060 nM; IC50 [14]: 586 nM; IC50 at 3 days [7]: 3570 nM; IC50 [8]: 1490 nM; IC50 [9]: 321 nM; IC50 [10]: 11 nM; IC50 [11]: 547 nM; IC50 [12]: 1 nM; IC50 [13]: 11 nM |
| Cc1cc(NC(=O)Nc2cc(-c3ccccc3)nn2-c2ccccc2)ccc1Nc1ncnc2c1OC(C)(C)C(=O)N2 | 171 | 38 | 1900 |  |
| Cc1cc(NC(=O)Nc2cc(C(C)(C)C)nn2-c2ccc(F)cc2)ccc1Nc1ncnc2c1OC(C)(C)C(=O)N2 | 12 | 30 | 245 |  |
| CC1(C)Oc2c(ncnc2Nc2ccc(NC(=O)Nc3cc(C(C)(C)C)nn3-c3ccccc3)cc2)NC1=O | 21 | 35 | 396 |  |
| CC1(C)Oc2c(ncnc2Nc2ccc(NC(=O)NC34C[C@H]5C[C@@H](C3)C[C@@H](C4)C5)cc2)NC1=O | > 10000 | > 10000 |  |  |
| Cc1cc(NC(=O)Nc2cc(C3CC3)nn2-c2ccccc2)ccc1Nc1ncnc2c1OC(C)(C)C(=O)N2 | 10 | 23 | 2010 |  |
| CC1(C)Oc2c(ncnc2Nc2ccc(NC(=O)Nc3cc(C(C)(C)C)nn3-c3ccccc3)c(C(F)(F)F)c2)NC1=O | 182 | 149 | 3900 |  |
| CC1(C)Oc2c(ncnc2Nc2ccc(NC(=O)Nc3cc(C(C)(C)C)nn3C(C)(C)C)cc2)NC1=O | 1400 | 6200 | > 10000 |  |
| Cn1nc(C(C)(C)C)cc1NC(=O)Nc1ccc(Nc2ncnc3c2OC(C)(C)C(=O)N3)cc1 | > 10000 | > 10000 |  |  |
| Cc1cc(Nc2ncnc3c2OC(C)(C)C(=O)N3)ccc1NC(=O)Nc1cc(C(C)(C)C)nn1-c1ccccc1 | 88 | 127 | 6040 |  |
| Cc1cc(NC(=O)Nc2cc(C(C)(C)C)nn2-c2ccccc2F)ccc1Nc1ncnc2c1OC(C)(C)C(=O)N2 | 15 | 20 | 3270 |  |
| Cc1ccc(NC(=O)Nc2ccc(Nc3ncnc4c3OC(C)(C)C(=O)N4)cc2)cc1 | > 10000 | > 10000 |  |  |

The next lines start with results.

| IC50 [1] [nM] | IC50 [2] [nM] | IC50 [3] [nM] | SMILES | also measured |
| --- | --- | --- | --- | --- |
| > 10000 | > 10000 |  | CC1(C)Oc2c(ncnc2Nc2ccc(NC(=O)Nc3ccc(C#N)cc3)cc2)NC1=O |  |
|  | 13 | 51 | Cc1cc(NC(=O)Nc2cc(C(C)(C)C)nn2-c2ccccc2)ccc1Nc1ncnc2c1OC(C)(C)C(=O)N2 | IC50 [4]: 39 nM; IC50 [5]: 2 nM; IC50 [6]: 151 nM; IC50 at 3 days [7]: > 10000 nM; IC50 [8]: 51 nM; IC50 [9]: 34 nM; IC50 [10]: 21 nM; IC50 [11]: 19 nM; IC50 [12]: 5 nM; IC50 [13]: 15 nM |
| 17 |  | 4020 | CC1(C)Oc2c(ncnc2Nc2ccc(NC(=O)Nc3cccc(C(F)(F)F)c3)cc2)NC1=O |  |
| > 10000 | > 10000 |  | CC1(C)Oc2c(ncnc2Nc2ccc(NC(=O)NC3CCCCC3)cc2)NC1=O |  |
| 22 | 14 | 709 | Cc1cc(NC(=O)Nc2cc(C(C)(C)C)nn2-c2cccnc2)ccc1Nc1ncnc2c1OC(C)(C)C(=O)N2 |  |
| 10 | 38 | 978 | COc1cc(Nc2ncnc3c2OC(C)(C)C(=O)N3)ccc1NC(=O)Nc1cc(C(C)(C)C)nn1-c1ccccc1 |  |
| 48 | 111 | 6520 | CC1(C)Oc2c(ncnc2Nc2ccc(NC(=O)Nc3cc(C(C)(C)C)no3)cc2)NC1=O |  |
| > 10000 | > 10000 |  | C=CCNC(=O)Nc1ccc(Nc2ncnc3c2OC(C)(C)C(=O)N3)cc1 |  |
| 88 | 87 | 382 | CC1(C)Oc2c(ncnc2Nc2ccc(NC(=O)Nc3cc(C(C)(C)C)nn3-c3ccccc3)c3ccccc23)NC1=O |  |
| 342 |  | > 10000 | CC1(C)Oc2c(ncnc2Nc2cccc(NC(=O)Nc3cc(C(C)(C)C)nn3-c3ccccc3)c2)NC1=O |  |
| > 10000 | > 10000 |  | CCNC(=O)Nc1ccc(Nc2ncnc3c2OC(C)(C)C(=O)N3)cc1 |  |
| 40 | 46 | 86 | Cc1cc(NC(=O)Nc2cc(C(C)(C)C)nn2-c2ccc(OC(F)(F)F)cc2)ccc1Nc1ncnc2c1OC(C)(C)C(=O)N2 |  |
| 38 | 81 | 978 | CC1(C)Oc2c(ncnc2Nc2ccc(NC(=O)Nc3cc(C(C)(C)C)nn3-c3ccccc3)c(F)c2)NC1=O |  |
| > 10000 | > 10000 |  | CC(C)(C)NC(=O)Nc1ccc(Nc2ncnc3c2OC(C)(C)C(=O)N3)cc1 |  |
| 123 | 50 | 9290 | COc1cc(NC(=O)Nc2cc(C(C)(C)C)nn2-c2ccccc2)ccc1Nc1ncnc2c1OC(C)(C)C(=O)N2 |  |
| 245 | 41 | > 10000 | Cc1cc(NC(=O)Nc2cc(C(C)(C)C)nn2-c2ccc3ccccc3c2)ccc1Nc1ncnc2c1OC(C)(C)C(=O)N2 |  |
| 33 | 156 | 3760 | CC1(C)Oc2c(ncnc2Nc2ccc(NC(=O)Nc3cc(C(C)(C)C)on3)cc2)NC1=O |  |
| 381 | 211 | 1350 | CC1(C)Oc2c(ncnc2Nc2ccc(NC(=O)Nc3ccc(Cl)c(C(F)(F)F)c3)cc2)NC1=O |  |
| > 10000 | > 10000 | > 10000 | CC(C)n1nc(C(C)(C)C)cc1NC(=O)Nc1ccc(Nc2ncnc3c2OC(C)(C)C(=O)N3)cc1 |  |
